In general, pIC50 refers to the IC50 on a negative log10 scale, so that one unit is a factor of ten.

pIC50: −log10 of the molar value.

Test [1] addresses T1, human V2 receptor (Homo sapiens, UniProt P30518).
T1 construct: expressed in transfected cells; host or cells: CHO K1 (ATCC) expressing firefly luciferase under a CRE-responsive promoter
In words: Cellular in vitro assay for determining vasopressin receptor activity, V2 receptor cell line (CHO, CRE-luciferase). Format: cell-based. The conditions noted are these: CHO cell line transfected with human V2 receptor; [Arg8]-vasopressin at EC50 concentration; read-out: IC50 hV2.

In test [2] the target is T2, human V1a receptor (Homo sapiens, UniProt P37288).
T2 construct: expressed in transfected cells; host or cells: CHO K1 (ATCC), also stably transfected with a modified aequorin
Briefly: Cellular in vitro assay for determining vasopressin receptor activity, V1a receptor cell line (CHO, aequorin luminescence). Format: cell-based. The conditions noted are these: for pIC50: CHO cell line transfected with human V1a receptor, [Arg]-vasopressin at EC50 concentration, read-out: IC50 hV1a; for ratio IC50 hV2/hV1a: selectivity ratio IC50 hV2 / IC50 hV1a. An outline of the steps:
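IC50 from inhibition of [Arg]-vasopressin (EC50 concentration)-evoked aequorin luminescence in CHO K1 cells, with 10-min compound pretreatment.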

T2 sequence (P37288 whole entry): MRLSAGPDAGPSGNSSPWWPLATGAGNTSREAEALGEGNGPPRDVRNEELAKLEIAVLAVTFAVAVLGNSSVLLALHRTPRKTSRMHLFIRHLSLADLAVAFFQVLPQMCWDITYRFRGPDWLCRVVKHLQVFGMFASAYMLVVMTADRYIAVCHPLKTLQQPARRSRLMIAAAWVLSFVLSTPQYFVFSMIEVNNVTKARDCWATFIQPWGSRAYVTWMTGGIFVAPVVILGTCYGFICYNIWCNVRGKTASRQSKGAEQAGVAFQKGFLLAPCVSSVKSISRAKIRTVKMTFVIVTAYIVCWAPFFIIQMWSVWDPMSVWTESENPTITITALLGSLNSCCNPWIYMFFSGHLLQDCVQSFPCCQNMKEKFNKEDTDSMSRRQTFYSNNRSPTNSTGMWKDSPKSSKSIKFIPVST
T1 sequence (P30518 whole entry): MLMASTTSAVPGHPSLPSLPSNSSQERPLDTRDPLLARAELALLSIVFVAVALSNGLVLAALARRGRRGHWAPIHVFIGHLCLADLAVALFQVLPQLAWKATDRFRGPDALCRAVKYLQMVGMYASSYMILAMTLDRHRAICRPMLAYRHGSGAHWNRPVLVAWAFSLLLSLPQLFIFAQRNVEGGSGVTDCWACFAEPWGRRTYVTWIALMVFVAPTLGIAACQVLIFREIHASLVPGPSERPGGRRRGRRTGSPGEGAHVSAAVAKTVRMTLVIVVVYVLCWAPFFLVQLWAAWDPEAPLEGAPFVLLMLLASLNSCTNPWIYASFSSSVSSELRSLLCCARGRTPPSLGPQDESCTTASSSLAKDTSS

Consider `O=C1CN(c2nc(Cn3nc(-c4ccc(Cl)cc4)n(C[C@H](O)C(F)(F)F)c3=O)nn2-c2cccnc2C(=O)NCC(F)(F)F)CCN1` [Example 509, 3-[3-({3-(4-Chlorophenyl)-5-oxo-4-[(2S)-3,3,3-trifluoro-2-hydroxypropyl]-4,5-dihydro-1H-1,2,4-triazol-1-yl}methyl)-5-(3-oxopiperazin-1-yl)-1H-1,2,4-triazol-1-yl]-N-(2,2,2-trifluoroethyl)pyridine-2-carboxamide], for which, in test [1], the pIC50 is 4.49. In test [2], the pIC50 was 5.58 and the “ratio IC50 hV2/hV1a” value is given as 12.1.

On to `O=C1CN(C(=O)c2nc(Cn3nc(-c4ccc(Cl)cc4)n(C[C@H](O)C(F)(F)F)c3=O)nn2-c2cnccc2C(=O)NCC(F)(F)F)CCN1` [Example 510, 3-{3-({3-(4-Chlorophenyl)-5-oxo-4-[(2S)-3,3,3-trifluoro-2-hydroxypropyl]-4,5-dihydro-1H-1,2,4-triazol-1-yl}methyl)-5-[(3-oxopiperazin-1-yl)carbonyl]-1H-1,2,4-triazol-1-yl}-N-(2,2,2-trifluoroethyl)pyridine-4-carboxamide], for which the pIC50 in test [1] is 5.05. Besides, in test [2], the pIC50 is 5.00 and the “ratio IC50 hV2/hV1a” value was 0.9.

For the compound `O=C1CN(C(=O)c2nc(Cn3nc(-c4ccc(Cl)cc4)n(C[C@H](O)C(F)(F)F)c3=O)nn2-c2cnccc2C(=O)NCCC(F)(F)F)CCN1` [Example 511, 3-{3-({3-(4-Chlorophenyl)-5-oxo-4-[(2S)-3,3,3-trifluoro-2-hydroxypropyl]-4,5-dihydro-1H-1,2,4-triazol-1-yl}methyl)-5-[(3-oxopiperazin-1-yl)carbonyl]-1H-1,2,4-triazol-1-yl}-N-(3,3,3-trifluoropropyl)pyridine-4-carboxamide], the pIC50 in test [1] was 5.84. Besides, in test [2], the negative logarithm of the IC50 (pIC50) was 5.78 and the “ratio IC50 hV2/hV1a” value turned out to be 0.9.

Consider `O=C1CN(C(=O)c2nc(Cn3nc(-c4ccc(Cl)cc4)n(C[C@H](O)C(F)(F)F)c3=O)nn2-c2ncccc2C(=O)NCCC(F)(F)F)CCN1` [Example 512, 2-{3-({3-(4-Chlorophenyl)-5-oxo-4-[(2S)-3,3,3-trifluoro-2-hydroxypropyl]-4,5-dihydro-1H-1,2,4-triazol-1-yl}methyl)-5-[(3-oxopiperazin-1-yl)carbonyl]-1H-1,2,4-triazol-1-yl}-N-(3,3,3-trifluoropropyl)pyridine-3-carboxamide], for which, in test [1], the negative-log IC50 (pIC50) is 5.90. Further, in test [2], the negative-log IC50 (pIC50) was 5.44 and the “ratio IC50 hV2/hV1a” value was 0.3.

Consider `O=C1CN(C(=O)c2nc(Cn3nc(-c4ccc(Cl)cc4)n(C[C@H](O)C(F)(F)F)c3=O)nn2-c2ncccc2C(=O)NC2CC2)CCN1` [Example 513, 2-{3-({3-(4-Chlorophenyl)-5-oxo-4-[(2S)-3,3,3-trifluoro-2-hydroxypropyl]-4,5-dihydro-1H-1,2,4-triazol-1-yl}methyl)-5-[(3-oxopiperazin-1-yl)carbonyl]-1H-1,2,4-triazol-1-yl}-N-cyclopropylpyridine-3-carboxamide], for which, in test [1], the negative-log IC50 (pIC50) was 5.26. In test [2], the negative-log IC50 (pIC50) was 5.62 and the “ratio IC50 hV2/hV1a” value came to 2.3.

As to `O=C1CN(C(=O)c2nc(Cn3nc(-c4ccc(Cl)cc4)n(C[C@H](O)C(F)(F)F)c3=O)nn2-c2cnccc2C(=O)NC2CC2)CCN1` [Example 514, 3-{3-({3-(4-Chlorophenyl)-5-oxo-4-[(2S)-3,3,3-trifluoro-2-hydroxypropyl]-4,5-dihydro-1H-1,2,4-triazol-1-yl}methyl)-5-[(3-oxopiperazin-1-yl)carbonyl]-1H-1,2,4-triazol-1-yl}-N-cyclopropylpyridine-4-carboxamide], in test [1], the pIC50 is 5.90. Also, in test [2], the pIC50 was 6.47 and the “ratio IC50 hV2/hV1a” value amounted to 3.7.

Take `CC1(NC(=O)c2ccncc2-n2nc(Cn3nc(-c4ccc(Cl)cc4)n(C[C@H](O)C(F)(F)F)c3=O)nc2C(=O)N2CCNC(=O)C2)CC1` [Example 515, 3-{3-({3-(4-Chlorophenyl)-5-oxo-4-[(2S)-3,3,3-trifluoro-2-hydroxypropyl]-4,5-dihydro-1H-1,2,4-triazol-1-yl}methyl)-5-[(3-oxopiperazin-1-yl)carbonyl]-1H-1,2,4-triazol-1-yl}-N-(1-methylcyclopropyl)pyridine-4-carboxamide]: in test [1], the pIC50 is 5.65. Moreover, in test [2], the negative logarithm of the IC50 (pIC50) is 5.70 and the “ratio IC50 hV2/hV1a” value came to 1.1.

In the case of `O=C(NCC(F)(F)F)c1ccncc1-n1nc(Cn2nc(-c3ccc(Cl)cc3)n(C[C@H](O)C(F)(F)F)c2=O)nc1C(=O)N1CCS(=O)(=O)CC1` [Example 518, 3-{3-({3-(4-Chlorophenyl)-5-oxo-4-[(2S)-3,3,3-trifluoro-2-hydroxypropyl]-4,5-dihydro-1H-1,2,4-triazol-1-yl}methyl)-5-[(1,1-dioxidothiomorpholin-4-yl)carbonyl]-1H-1,2,4-triazol-1-yl}-N-(2,2,2-trifluoroethyl)pyridine-4-carboxamide], the negative logarithm of the IC50 (pIC50) in test [1] was 6.32. In addition, in test [2], the pIC50 was 6.02 and the “ratio IC50 hV2/hV1a” value was found to be 0.5.

`O=C(NCCC(F)(F)F)c1ccncc1-n1nc(Cn2nc(-c3ccc(Cl)cc3)n(C[C@H](O)C(F)(F)F)c2=O)nc1C(=O)N1CCS(=O)(=O)CC1` [Example 519, 3-{3-({3-(4-Chlorophenyl)-5-oxo-4-[(2S)-3,3,3-trifluoro-2-hydroxypropyl]-4,5-dihydro-1H-1,2,4-triazol-1-yl}methyl)-5-[(1,1-dioxidothiomorpholin-4-yl)carbonyl]-1H-1,2,4-triazol-1-yl}-N-(3,3,3-trifluoropropyl)pyridine-4-carboxamide]: the pIC50 in test [1] is 6.03. Moreover, in test [2], the pIC50 is 5.87 and the “ratio IC50 hV2/hV1a” value came out at 0.7.

Regarding `O=C(NC1CC1)c1ccncc1-n1nc(Cn2nc(-c3ccc(Cl)cc3)n(C[C@H](O)C(F)(F)F)c2=O)nc1C(=O)N1CCS(=O)(=O)CC1` [Example 520, 3-{3-({3-(4-Chlorophenyl)-5-oxo-4-[(2S)-3,3,3-trifluoro-2-hydroxypropyl]-4,5-dihydro-1H-1,2,4-triazol-1-yl}methyl)-5-[(1,1-dioxidothiomorpholin-4-yl)carbonyl]-1H-1,2,4-triazol-1-yl}-N-cyclopropylpyridine-4-carboxamide], in test [1], the negative-log IC50 (pIC50) was 6.18. Moreover, in test [2], the negative logarithm of the IC50 (pIC50) was 6.53 and the “ratio IC50 hV2/hV1a” value stood at 2.3.

In the case of `CC1(NC(=O)c2ccncc2-n2nc(Cn3nc(-c4ccc(Cl)cc4)n(C[C@H](O)C(F)(F)F)c3=O)nc2C(=O)N2CCS(=O)(=O)CC2)CC1` [Example 521, 3-{3-({3-(4-Chlorophenyl)-5-oxo-4-[(2S)-3,3,3-trifluoro-2-hydroxypropyl]-4,5-dihydro-1H-1,2,4-triazol-1-yl}methyl)-5-[(1,1-dioxidothiomorpholin-4-yl)carbonyl]-1H-1,2,4-triazol-1-yl}-N-(1-methylcyclopropyl)pyridine-4-carboxamide], the pIC50 in test [1] was 6.05. Further, in test [2], the pIC50 was 5.20 and the “ratio IC50 hV2/hV1a” value was 0.1.

`O=C1CN(C(=O)c2nc(Cn3nc(-c4ccc(Cl)cc4)n(C[C@H](O)C(F)(F)F)c3=O)nn2-c2ncccc2C(=O)NCC(F)(F)F)CCN1` [Example 524, 2-{3-({3-(4-Chlorophenyl)-5-oxo-4-[(2S)-3,3,3-trifluoro-2-hydroxypropyl]-4,5-dihydro-1H-1,2,4-triazol-1-yl}methyl)-5-[(3-oxopiperazin-1-yl)carbonyl]-1H-1,2,4-triazol-1-yl}-N-(2,2,2-trifluoroethyl)pyridine-3-carboxamide]: the pIC50 in test [1] was 5.46; in test [2], 5.33. In test [2], the “ratio IC50 hV2/hV1a” value is 0.7.
